Data: US6737383B1, “Herbicidal oxadiazolidines” (priority 1999, dated 2004)

Assays:
[1] = tested on: blackgrass; assay: Test B pre/postemergence blackgrass; type: in vivo, Alopecurus myosuroides
Summary of the method: (§1)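 Test chemicals in a non-phytotoxic solvent mixture with surfactant were sprayed preemergence onto planted seeds and postemergence onto plants 2 to 18 cm tall (1- to 4-leaf stage). After twelve to sixteen days in a greenhouse, injury was visually rated against untreated controls from 0 (no effect) to 10 (complete control).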

[2] = tested on: surinam grass; assay: Test B pre/postemergence surinam grass; type: in vivo, Brachiaria decumbens
Summary of the method: as §1

[3] = tested on: cocklebur; assay: Test B pre/postemergence cocklebur; type: in vivo, Xanthium strumarium
Summary of the method: as §1

[4] = tested on: corn; assay: Test B pre/postemergence corn; type: in vivo, Zea mays
Summary of the method: as §1

[5] = tested on: crabgrass; assay: Test B pre/postemergence crabgrass; type: in vivo, Digitaria sanguinalis
Summary of the method: as §1

[6] = tested on: giant foxtail; assay: Test B pre/postemergence giant foxtail; type: in vivo, Setaria faberii
Summary of the method: as §1

[7] = tested on: morningglory; assay: Test B pre/postemergence morningglory; type: in vivo, Ipomoea hederacea; details: for Plant response rating, Morningglory: scale of 0 to 10 where 0 is no effect and 10 is complete control
Summary of the method: as §1

[8] = tested on: pigweed; assay: Test B pre/postemergence pigweed; type: in vivo, Amaranthus retroflexus; details: for Plant response rating, Redroot pigweed: scale of 0 to 10 where 0 is no effect and 10 is complete control
Summary of the method: as §1

[9] = tested on: rape; assay: Test B pre/postemergence rape; type: in vivo, Brassica napus; details: for Plant response rating, Rape: scale of 0 to 10 where 0 is no effect and 10 is complete control
Summary of the method: as §1

[10] = tested on: soybean; assay: Test B pre/postemergence soybean; type: in vivo, Glycine max; details: for Plant response rating, Soybean: scale of 0 to 10 where 0 is no effect and 10 is complete control
Summary of the method: as §1

[11] = tested on: sugar beet; assay: Test B pre/postemergence sugar beet; type: in vivo, Beta vulgaris; details: for Plant response rating, Sugarbeets: scale of 0 to 10 where 0 is no effect and 10 is complete control
Summary of the method: as §1

[12] = tested on: velvetleaf; assay: Test B pre/postemergence velvetleaf; type: in vivo, Abutilon theophrasti; details: for Plant response rating, Velvetleaf: scale of 0 to 10 where 0 is no effect and 10 is complete control
Summary of the method: as §1

[13] = tested on: wheat; assay: Test B pre/postemergence wheat; type: in vivo, Triticum aestivum; details: for Plant response rating, Wheat: scale of 0 to 10 where 0 is no effect and 10 is complete control
Summary of the method: as §1

[14] = tested on: wild oat; assay: Test B pre/postemergence wild oat; type: in vivo, Avena fatua; details: for Plant response rating, Wild oats: scale of 0 to 10 where 0 is no effect and 10 is complete control
Summary of the method: as §1

[15] = tested on: purple nutsedge; assay: Test B pre/postemergence purple nutsedge; type: in vivo, Cyperus rotundus; details: for Plant response rating, Nutsedge: scale of 0 to 10 where 0 is no effect and 10 is complete control
Summary of the method: as §1

[16] = tested on: rice; assay: Test B flood test rice; type: in vivo, Oryza sativa
Summary of the method: (§2)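 Each value is a visual injury score relative to controls, with 10 meaning complete control and 0 no effect. Evaluation took place twelve to sixteen days after the 2-leaf-stage plants were treated and kept in the greenhouse.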

[17] = tested on: smallflower flatsedge; assay: Test B flood test smallflower flatsedge; type: in vivo, Cyperus difformis
Summary of the method: as §2

[18] = tested on: duck salad; assay: Test B flood test duck salad; type: in vivo, Heteranthera limosa
Summary of the method: as §2

[19] = tested on: bamyardgrass; assay: Test B flood test barnyardgrass; type: in vivo, Echinochloa crus-galli
Summary of the method: as §2

[20] = Postemergence, Rate 250 g/ha, scale 0 to 10
[21] = Postemergence, Rate 500 g/ha, scale of 0 to 10 where 0 is no effect and 10 is complete control
[22] = Preemergence, Rate 62 g/ha, scale of 0 to 10 where 0 is no effect and 10 is complete control
[23] = Preemergence, Rate 125 g/ha, scale of 0 to 10 where 0 is no effect and 10 is complete control
[24] = Preemergence, Rate 250 g/ha, scale 0 to 10, 0 is no effect, 10 is complete control
[25] = Preemergence, Rate 500 g/ha, scale 0 to 10, 0 is no effect, 10 is complete control
[26] = Rate 62 g/ha, Postemergence, scale 0 to 10 (0 no effect, 10 complete control)
[27] = Rate 125 g/ha, Postemergence, scale 0 to 10, 0 is no effect, 10 is complete control
[28] = Rate 62 g/ha, flood test species, Pre-emergence, visual evaluation after twelve to sixteen days
[29] = Rate 125 g/ha, under heading Pre-emergence, flood test species, visual evaluation after twelve to sixteen days
[30] = Rate 250 g/ha, Pre-emergence (flood test species), scale 0 to 10, 0 is no effect, 10 is complete control
[31] = Rate 500 g/ha, Pre-emergence, flood test species, scale 0 to 10 (0 no effect, 10 complete control)

CC(=O)NCn1c(=O)on(C(=O)N(c2ccc(F)cc2)C(C)C)c1=O [Compound 473]
4: Crabgrass plant response rating [5, 24] | Giant foxtail plant response rating [6, 24]
7: Crabgrass plant response rating [5, 25] | Giant foxtail plant response rating [6, 21] | Giant foxtail plant response rating [6, 25]
6: Giant foxtail plant response rating [6, 20]
8: Crabgrass plant response rating [5, 21]
10: Plant response rating, Redroot pigweed ([8]; Preemergence, Rate 125 g/ha) | Redroot pigweed plant response rating [8, 24] | Redroot pigweed plant response rating [8, 25]
3: Blackgrass plant response rating [1, 25] | Crabgrass plant response rating [5, 20] | Plant response rating, Giant foxtail [6, 23]
2: Plant response rating, Crabgrass [5, 23] | Crabgrass plant response rating [5, 27] | Plant response rating, Giant foxtail [6, 22] | Giant foxtail plant response rating [6, 27] | Morningglory plant response rating [7, 20] | Plant response rating, Redroot pigweed ([8]; Preemergence, Rate 62 g/ha)
1: Crabgrass plant response rating [5, 26] | Giant foxtail plant response rating [6, 26] | Morningglory plant response rating [7, 27] | Soybean plant response rating [10, 20] | Soybean plant response rating [10, 26] | Soybean plant response rating [10, 27]
0: Blackgrass plant response rating [1, 20] | Blackgrass plant response rating [1, 21] | Plant response rating, Blackgrass [1, 22] | Plant response rating, Blackgrass [1, 23] | Blackgrass plant response rating [1, 24] | Blackgrass plant response rating [1, 26] | Blackgrass plant response rating [1, 27] | B. signalgrass plant response rating ([2]; Postemergence, Rate 250 g/ha, scale 0 to 10, 0 no effect, 10 complete control) | B. signalgrass plant response rating [2, 21] | Plant response rating, B. signalgrass [2, 22] | Plant response rating, B. signalgrass [2, 23] | B. signalgrass plant response rating [2, 24] | B. signalgrass plant response rating [2, 25] | B. signalgrass plant response rating [2, 26] | B. signalgrass plant response rating [2, 27] | Cocklebur plant response rating [3, 20] | Cocklebur plant response rating [3, 21] | Plant response rating, Cocklebur [3, 22] | Plant response rating, Cocklebur [3, 23] | Cocklebur plant response rating [3, 25] | Cocklebur plant response rating [3, 26] | Cocklebur plant response rating [3, 27] | Corn plant response rating [4, 20] | Corn plant response rating [4, 21] | Plant response rating, Corn [4, 22] | Plant response rating, Corn [4, 23] | Corn plant response rating [4, 24] | Corn plant response rating [4, 25] | Corn plant response rating [4, 26] | Corn plant response rating [4, 27] | Plant response rating, Morningglory ([7]; Preemergence, Rate 62 g/ha) | Plant response rating, Morningglory ([7]; Preemergence, Rate 125 g/ha) | Morningglory plant response rating [7, 24] | Morningglory plant response rating [7, 25] | Morningglory plant response rating [7, 26] | Redroot pigweed plant response rating [8, 20] | Redroot pigweed plant response rating [8, 26] | Redroot pigweed plant response rating [8, 27] | Rape plant response rating [9, 20] | Plant response rating, Rape ([9]; Preemergence, Rate 62 g/ha) | Plant response rating, Rape ([9]; Preemergence, Rate 125 g/ha) | Rape plant response rating [9, 24] | Rape plant response rating [9, 25] | Rape plant response rating [9, 26] | Rape plant response rating [9, 27] | Plant response rating, Soybean ([10]; Preemergence, Rate 62 g/ha) | Plant response rating, Soybean ([10]; Preemergence, Rate 125 g/ha) | Soybean plant response rating [10, 24] | Soybean plant response rating [10, 25] | Sugarbeets plant response rating [11, 20] | Plant response rating, Sugarbeets ([11]; Preemergence, Rate 62 g/ha) | Plant response rating, Sugarbeets ([11]; Preemergence, Rate 125 g/ha) | Sugarbeets plant response rating [11, 24] | Sugarbeets plant response rating [11, 25] | Sugarbeets plant response rating [11, 26] | Sugarbeets plant response rating [11, 27] | Velvetleaf plant response rating [12, 20] | Plant response rating, Velvetleaf ([12]; Preemergence, Rate 62 g/ha) | Plant response rating, Velvetleaf ([12]; Preemergence, Rate 125 g/ha) | Velvetleaf plant response rating [12, 24] | Velvetleaf plant response rating [12, 25] | Velvetleaf plant response rating [12, 26] | Velvetleaf plant response rating [12, 27] | Wheat plant response rating [13, 20] | Plant response rating, Wheat ([13]; Preemergence, Rate 62 g/ha) | Plant response rating, Wheat ([13]; Preemergence, Rate 125 g/ha) | Wheat plant response rating [13, 24] | Wheat plant response rating [13, 25] | Wheat plant response rating [13, 26] | Wheat plant response rating [13, 27] | Wild oats plant response rating [14, 20] | Plant response rating, Wild oats ([14]; Preemergence, Rate 62 g/ha) | Plant response rating, Wild oats ([14]; Preemergence, Rate 125 g/ha) | Wild oats plant response rating [14, 24] | Wild oats plant response rating [14, 25] | Wild oats plant response rating [14, 26] | Wild oats plant response rating [14, 27] | Nutsedge plant response rating [15, 20] | Plant response rating, Nutsedge ([15]; Preemergence, Rate 62 g/ha) | Plant response rating, Nutsedge ([15]; Preemergence, Rate 125 g/ha) | Nutsedge plant response rating [15, 24] | Nutsedge plant response rating [15, 26] | Nutsedge plant response rating [15, 27] | Plant response rating, Rice (0 to 10 scale, 0 is no effect, 10 is complete control) [16, 28] | Rice plant response rating (0 to 10 scale, 0 is no effect, 10 is complete control) [16, 29] | Rice plant response rating [16, 30] | Rice plant response rating [16, 31] | Plant response rating, S. Flatsedge (0 to 10 scale, 0 is no effect, 10 is complete control) [17, 28] | S. Flatsedge plant response rating (0 to 10 scale, 0 is no effect, 10 is complete control) [17, 29] | S. Flatsedge plant response rating [17, 30] | S. Flatsedge plant response rating [17, 31] | Plant response rating, Ducksalad (0 to 10 scale, 0 is no effect, 10 is complete control) [18, 28] | Ducksalad plant response rating (0 to 10 scale, 0 is no effect, 10 is complete control) [18, 29] | Ducksalad plant response rating [18, 30] | Ducksalad plant response rating [18, 31] | Plant response rating, Barnyardgrass (0 to 10 scale, 0 is no effect, 10 is complete control) [19, 28] | Barnyardgrass plant response rating (0 to 10 scale, 0 is no effect, 10 is complete control) [19, 29] | Barnyardgrass plant response rating [19, 30] | Barnyardgrass plant response rating [19, 31]
